Data reported in the NIST ThermoML archive (doi:10.1016/j.jct.2016.02.009).

Experiments:
[1] = for molar entropy: 101.33 kPa, Small (less than 1 g) adiabatic calorimetry; for vapor or sublimation pressure: Calculated from knudsen effusion weight loss; for Triple point temperature: Adiabatic calorimetry
[2] = Molar enthalpy of transition or fusion; conditions: Crystal 1; Adiabatic calorimetry

CCCCCCCCCCCCCCn1cc[n+](C)c1.O=S(=O)([N-]S(=O)(=O)C(F)(F)F)C(F)(F)F
[1]
Conditions	molar entropy [J/K/mol]	vapor or sublimation pressure [kPa]
5 K, Crystal 2	1.17	–
10 K, Crystal 2	7.53	–
15 K, Crystal 2	18.57	–
20 K, Crystal 2	32.77	–
25 K, Crystal 2	48.94	–
30 K, Crystal 2	66.22	–
35 K, Crystal 2	84.11	–
40 K, Crystal 2	102.3	–
45 K, Crystal 2	120.5	–
50 K, Crystal 2	138.7	–
60 K, Crystal 2	174.7	–
70 K, Crystal 2	209.8	–
80 K, Crystal 2	244	–
90 K, Crystal 2	277.1	–
100 K, Crystal 2	309.3	–
110 K, Crystal 2	340.5	–
120 K, Crystal 2	370.8	–
130 K, Crystal 2	400.3	–
140 K, Crystal 2	429.1	–
150 K, Crystal 2	457.2	–
160 K, Crystal 2	484.6	–
170 K, Crystal 2	511.6	–
180 K, Crystal 2	538.1	–
190 K, Crystal 2	564.2	–
200 K, Crystal 2	589.9	–
210 K, Crystal 2	615.5	–
220 K, Crystal 2	640.8	–
230 K, Crystal 2	666	–
240 K, Crystal 2	691.3	–
250 K, Crystal 2	716.7	–
260 K, Crystal 2	742.5	–
270 K, Crystal 2	769.1	–
280 K, Crystal 2	797.3	–
290 K, Crystal 2	829.7	–
295.5 K, Crystal 1	850.6	–
295.5 K, Crystal 2	850.6	–
298.15 K, Crystal 1	860.5	–
300 K, Crystal 1	866	–
308.77 K, Crystal 1	891.2	–
308.77 K, Liquid	1037	–
310 K, Liquid	1041	–
320 K, Liquid	1070	–
330 K, Liquid	1098	–
340 K, Liquid	1125	–
350 K, Liquid	1152	–
360 K, Liquid	1179	–
370 K, Liquid	1205	–
498.07 K, Liquid	–	2.76e-05
503.06 K, Liquid	–	3.85e-05
508.05 K, Liquid	–	5.39e-05
513.05 K, Liquid	–	7.45e-05
518.04 K, Liquid	–	0.0001018
523.05 K, Liquid	–	0.0001397
528.05 K, Liquid	–	0.0001898

[1]
Conditions	Triple point temperature [K]
Crystal 1	308.77
Crystal 2	295.5

Conditions	Molar enthalpy of transition or fusion [kcal/mol]
[2]	10.8

CCCCCCCCCCCCCCCCn1cc[n+](C)c1.O=S(=O)([N-]S(=O)(=O)C(F)(F)F)C(F)(F)F
[1]
Conditions	molar entropy [J/K/mol]	vapor or sublimation pressure [kPa]
5 K, Crystal 2	1.23	–
10 K, Crystal 2	7.81	–
15 K, Crystal 2	19.15	–
20 K, Crystal 2	33.76	–
25 K, Crystal 2	50.4	–
30 K, Crystal 2	68.27	–
35 K, Crystal 2	86.83	–
40 K, Crystal 2	105.7	–
45 K, Crystal 2	124.7	–
50 K, Crystal 2	143.7	–
60 K, Crystal 2	181.5	–
70 K, Crystal 2	218.5	–
80 K, Crystal 2	254.6	–
90 K, Crystal 2	289.6	–
100 K, Crystal 2	323.6	–
110 K, Crystal 2	356.7	–
120 K, Crystal 2	388.9	–
130 K, Crystal 2	420.2	–
140 K, Crystal 2	450.7	–
150 K, Crystal 2	480.4	–
160 K, Crystal 2	509.6	–
170 K, Crystal 2	538.1	–
180 K, Crystal 2	566.1	–
190 K, Crystal 2	593.7	–
200 K, Crystal 2	621	–
210 K, Crystal 2	647.9	–
220 K, Crystal 2	674.5	–
230 K, Crystal 2	701.1	–
240 K, Crystal 2	727.5	–
250 K, Crystal 2	754.1	–
260 K, Crystal 2	780.8	–
270 K, Crystal 2	808.1	–
280 K, Crystal 2	836.2	–
290 K, Crystal 2	866.1	–
298.15 K, Crystal 2	893.4	–
300 K, Crystal 2	900.3	–
305.5 K, Crystal 1	922.5	–
305.5 K, Crystal 2	922.5	–
310 K, Crystal 1	941	–
319.25 K, Crystal 1	971.3	–
319.25 K, Liquid	1132	–
320 K, Liquid	1134	–
330 K, Liquid	1164	–
340 K, Liquid	1194	–
350 K, Liquid	1222	–
360 K, Liquid	1251	–
370 K, Liquid	1279	–
508.07 K, Liquid	–	3.21e-05
513.07 K, Liquid	–	4.5e-05
518.07 K, Liquid	–	6.31e-05
523.07 K, Liquid	–	8.75e-05
528.06 K, Liquid	–	0.0001197
533.07 K, Liquid	–	0.0001644

[1]
Conditions	Triple point temperature [K]
Crystal 1	319.25
Crystal 2	305.5

Conditions	Molar enthalpy of transition or fusion [kcal/mol]
[2]	12.26

CCCCCCCCCCn1cc[n+](C)c1.O=S(=O)([N-]S(=O)(=O)C(F)(F)F)C(F)(F)F
[1]
Conditions	molar entropy [J/K/mol]
5 K, Crystal 2	1.18
10 K, Crystal 2	7.33
15 K, Crystal 2	17.93
20 K, Crystal 2	31.5
25 K, Crystal 2	46.8
30 K, Crystal 2	63.01
35 K, Crystal 2	79.61
40 K, Crystal 2	96.26
50 K, Crystal 2	129.2
60 K, Crystal 2	161.4
70 K, Crystal 2	192.7
80 K, Crystal 2	222.8
90 K, Crystal 2	252
100 K, Crystal 2	280.3
110 K, Crystal 2	307.8
120 K, Crystal 2	334.4
130 K, Crystal 2	360.4
140 K, Crystal 2	385.8
150 K, Crystal 2	410.5
160 K, Crystal 2	434.8
170 K, Crystal 2	458.6
180 K, Crystal 2	482.1
190 K, Crystal 2	505.4
200 K, Crystal 2	528.6
210 K, Crystal 2	551.8
220 K, Crystal 2	575.2
230 K, Crystal 2	599.3
240 K, Crystal 2	625.2
249 K, Crystal 1	653.6
249 K, Crystal 2	653.6
252 K, Crystal 1	662.4
260 K, Crystal 1	682.3
270 K, Crystal 1	707.5
277.33 K, Crystal 1	726.3
277.33 K, Liquid	829.8
280 K, Liquid	836.9
290 K, Liquid	863.1
298.15 K, Liquid	883.9
300 K, Liquid	888.6
310 K, Liquid	913.5
320 K, Liquid	937.9
330 K, Liquid	961.7
340 K, Liquid	985.1
350 K, Liquid	1008
360 K, Liquid	1031
370 K, Liquid	1053

[1]
Conditions	Triple point temperature [K]
Crystal 1	277.33
Crystal 2	249

Conditions	Molar enthalpy of transition or fusion [kcal/mol]
[2]	6.852
